{"source": "patent US20140274971A1", "about": "“Systems and Methods of Using Chemically Bound Antibiotics Activated by Infections” (Osteoceramics, Inc., priority 2013, published 2014)", "key": {"Staph. A.": {"system": "Staph. A.", "type": "cell-based, Staphylococcus aureus", "source_text": "(§1) The setting solution is aqueous calcium chloride."}, "staphylococcus aureus": {"system": "staphylococcus aureus", "experiment": "Repeated Kirby-Bauer test, ciprofloxacin-doped cement (Example 4)", "type": "cell-based", "source_text": "A Kirby-Bauer test using staphylococcus aureus was repeated for ciprofloxacin-doped cement with more detail. All specimens, and the paper control, were 6 mm diameter."}, "Pseudo. A.": {"system": "Pseudo. A.", "type": "cell-based, Psuedomonus aeruginosa", "source_text": "as §1"}, "selected bacterium": {"system": "selected bacterium", "type": "cell-based", "conditions": "for effectiveness of other tetracyclines (in words): other experiments, bound to implant", "source_text": "They were rinsed with deionized water and dried. […] The solutions were saved for bioactivity testing."}, "Esccherichia coli": {"system": "Esccherichia coli", "experiment": "Kirby-Bauer method, tetracycline treated disks, periodontal bacteria", "type": "cell-based", "conditions": "disks treated with 0.1 mg/ml, 1 mg/ml and 10 mg/ml; 10^4 to 10^6 levels", "source_text": "(§2) Because tooth roots are in an anaerobic environment, bacteria were selected from those commonly encountered in periodontal disease for evaluation by the Kirby-Bauer method. They were ATCCJ177i: Bacillus cereus, Corynebacterium spp., Esccherichia coli, Pasteurella multocida and Staphylococcus spp. Each was doped on Mueller-Hinton agar at 10^4 to 10^6 levels."}, "Corynebacterium spp.": {"system": "Corynebacterium spp.", "experiment": "Kirby-Bauer method, tetracycline treated disks, periodontal bacteria", "type": "cell-based", "conditions": "disks treated with 0.1 mg/ml, 1 mg/ml and 10 mg/ml; 10^4 to 10^6 levels", "source_text": "as §2"}, "Staphylococcus spp.": {"system": "Staphylococcus spp.", "experiment": "Kirby-Bauer method, tetracycline treated disks, periodontal bacteria", "type": "cell-based", "conditions": "disks treated with 0.1 mg/ml, 1 mg/ml and 10 mg/ml; 10^4 to 10^6 levels", "source_text": "as §2"}, "Pasteurella multocida": {"system": "Pasteurella multocida", "experiment": "Kirby-Bauer method, tetracycline treated disks, periodontal bacteria", "type": "cell-based", "conditions": "disks treated with 0.1 mg/ml, 1 mg/ml and 10 mg/ml; 10^4 to 10^6 levels", "source_text": "as §2"}, "Bacillus cereus": {"system": "Bacillus cereus", "experiment": "Kirby-Bauer method, tetracycline treated disks, periodontal bacteria", "type": "cell-based", "conditions": "disks treated with 0.1 mg/ml, 1 mg/ml and 10 mg/ml; 10^4 to 10^6 levels", "source_text": "as §2"}, "bacterial growth": {"system": "bacterial growth", "experiment": "Mueller-Hinton agar cultures of concretes made of tetracycline-treated grains", "type": "cell-based", "conditions": "concretes of treated grains with gypsum, calcium aluminate or zinc phosphate cement; cured 24 hours", "experimental": "These were separated into sizes with sieves, to produce a range of size fractions; 12-20 mesh, 20-35 mesh, 35-65 mesh, 65-270 mesh, and minus 325 mesh. […] The tetracycline bonds to the tricalcium component of the grain surfaces. […] So the tricalcium phosphate phase is interconnected throughout the volume and is exposed at 50% of the surface area. […] The surface area was calculated assuming the particles were spheres of the median radius for the sieve fraction. […] The grains changed from white to orange as a result of the treatment. These grains were used to make cements for filling bone voids, combining 65% of one fraction with 15% of the second, finer, fraction in the series, 5% of the −325 mesh fraction and 15% of cement. Different cements were used, including gypsum, calcium aluminate and zinc phosphate cements. These concretes set in 5 to 10 minutes in a wet environment. After curing 24 hours at 100% humidity and 37° C., disks of these concretes were tested in Mueller-Hinton agar cultures to determine if they would inhibit bacterial growth. […] Thus the concrete prostheses have the properties needed to treat bone voids. Note that the size of the coarse fraction 12-20, […] or 35-65 will depend on the maximum particle size that must not exceed the maximum size of the void to be filled."}, "[1]": {"conditions": "10^−2 gr/gram of calcium aluminate, 1 Day"}, "[2]": {"conditions": "10^−2 gr/gram of calcium aluminate, 1 Hour"}, "[3]": {"conditions": "10^−2 gr/gram of calcium aluminate, 1 Week"}, "[4]": {"conditions": "10^−2 grams ciprofloxacin per gram of calcium aluminate, one week"}, "[5]": {"conditions": "10^−3 gr/gram of calcium aluminate, 1 Day"}, "[6]": {"conditions": "10^−3 gr/gram of calcium aluminate, 1 Hour"}, "[7]": {"conditions": "10^−3 gr/gram of calcium aluminate, 1 Week"}, "[8]": {"conditions": "10^−4 gr/gram of calcium aluminate, 1 Day"}, "[9]": {"conditions": "10^−4 gr/gram of calcium aluminate, 1 Hour"}, "[10]": {"conditions": "10^−4 gr/gram of calcium aluminate, 1 Week"}}, "note": "Read-outs that look alike come from different tables or passages of the source.", "data": [{"smiles": "O=C(O)c1cn(C2CC2)c2cc(N3CCNCC3)c(F)cc2c1=O", "note": "[ciprofloxacin, Ciprofloxacin]", "values": [{"measurement": "Kirby-Bauer Inhibition Zone", "setting": "Staph. A.; [1]", "value": 29, "unit": "mm"}, {"measurement": "Kirby-Bauer Inhibition Zone", "setting": "Staph. A.; [2]", "value": 34, "unit": "mm"}, {"measurement": "Kirby-Bauer Inhibition Zone", "setting": "Staph. A.; [3]", "value": 32, "unit": "mm"}, {"measurement": "inhibition (in words)", "setting": "Staph. A.; [4]", "value": "effective for one week"}, {"measurement": "Kirby-Bauer Inhibition Zone", "setting": "Staph. A.; [5]", "value": 5, "unit": "mm"}, {"measurement": "Kirby-Bauer Inhibition Zone", "setting": "Staph. A.; [6]", "value": 27, "unit": "mm"}, {"measurement": "Kirby-Bauer Inhibition Zone", "setting": "Staph. A.; [7]", "value": 21, "unit": "mm"}, {"measurement": "Kirby-Bauer Inhibition Zone", "setting": "Staph. A.; [8]", "value": 0, "unit": "mm"}, {"measurement": "Kirby-Bauer Inhibition Zone", "setting": "Staph. A.; [9]", "value": 7, "unit": "mm"}, {"measurement": "Kirby-Bauer Inhibition Zone", "setting": "Staph. A.; [10]", "value": 0, "unit": "mm"}, {"measurement": "Kirby-Bauer Inhibition Zone", "setting": "E. Coli; [1]", "value": 37, "unit": "mm"}, {"measurement": "Kirby-Bauer Inhibition Zone", "setting": "E. Coli; [2]", "value": 49, "unit": "mm"}, {"measurement": "Kirby-Bauer Inhibition Zone", "setting": "E. Coli; [3]", "value": 44, "unit": "mm"}, {"measurement": "inhibition (in words)", "setting": "E. Coli; [4]", "value": "effective for one week"}, {"measurement": "Kirby-Bauer Inhibition Zone", "setting": "E. Coli; [5]", "value": 27, "unit": "mm"}, {"measurement": "Kirby-Bauer Inhibition Zone", "setting": "E. Coli; [6]", "value": 42, "unit": "mm"}, {"measurement": "Kirby-Bauer Inhibition Zone", "setting": "E. Coli; [7]", "value": 33, "unit": "mm"}, {"measurement": "Kirby-Bauer Inhibition Zone", "setting": "E. Coli; [8]", "value": 22, "unit": "mm"}, {"measurement": "Kirby-Bauer Inhibition Zone", "setting": "E. Coli; 10^−4 gr/gram of calcium aluminate, 1 Hour after setting, saline 37° C.", "value": 34, "unit": "mm"}, {"measurement": "Kirby-Bauer Inhibition Zone", "setting": "E. Coli; [10]", "value": 23, "unit": "mm"}, {"measurement": "zone compared with control disk (in words)", "setting": "staphylococcus aureus; 10^−2 g/g concentration", "value": "equivalent to the control disk"}, {"measurement": "zone compared with control disk (in words)", "setting": "staphylococcus aureus; 10^−3 g/g", "value": "somewhat less"}, {"measurement": "effect of rinsing the pellet to remove surface antibiotic", "setting": "staphylococcus aureus; rinsed vs not rinsed", "value": "had no effect"}, {"measurement": "Kirby-Bauer Inhibition Zone", "setting": "Pseudo. A.; [1]", "value": 35, "unit": "mm"}, {"measurement": "Kirby-Bauer Inhibition Zone", "setting": "Pseudo. A.; [2]", "value": 44, "unit": "mm"}, {"measurement": "Kirby-Bauer Inhibition Zone", "setting": "Pseudo. A.; [3]", "value": 39, "unit": "mm"}, {"measurement": "inhibition (in words)", "setting": "Pseudo. A.; [4]", "value": "effective for one week"}, {"measurement": "Kirby-Bauer Inhibition Zone", "setting": "Pseudo. A.; [5]", "value": 19, "unit": "mm"}, {"measurement": "Kirby-Bauer Inhibition Zone", "setting": "Pseudo. A.; [6]", "value": 34, "unit": "mm"}, {"measurement": "Kirby-Bauer Inhibition Zone", "setting": "Pseudo. A.; [7]", "value": 21, "unit": "mm"}, {"measurement": "Kirby-Bauer Inhibition Zone", "setting": "Pseudo. A.; [8]", "value": 0, "unit": "mm"}, {"measurement": "Kirby-Bauer Inhibition Zone", "setting": "Pseudo. A.; [9]", "value": 21, "unit": "mm"}, {"measurement": "Kirby-Bauer Inhibition Zone", "setting": "Pseudo. A.; [10]", "value": 0, "unit": "mm"}]}, {"smiles": "CN(C)[C@@H]1C(O)=C(C(N)=O)C(=O)[C@@]2(O)C(O)=C3C(=O)c4c(O)ccc(Cl)c4[C@@H](O)[C@H]3C[C@@H]12", "note": "[democlotetracycline]", "values": [{"measurement": "effectiveness of other tetracyclines (in words)", "setting": "selected bacterium", "value": "effective"}]}, {"smiles": "CN(C)[C@@H]1C(O)=C(C(N)=O)C(=O)[C@@]2(O)C(O)=C3C(=O)c4c(O)cccc4[C@@](C)(O)[C@H]3[C@H](O)[C@@H]12", "note": "[oxytetracycline]", "values": [{"measurement": "effectiveness of other tetracyclines (in words)", "setting": "selected bacterium", "value": "effective"}]}, {"smiles": "CN(C)[C@@H]1C(=O)C(C(N)=O)=C(O)[C@@]2(O)C(=O)C3=C(O)c4c(O)cccc4[C@@](C)(O)[C@H]3C[C@@H]12", "note": "[tetracycline, Tetracycline]", "values": [{"measurement": "inhibition zones (in words)", "setting": "selected bacterium; disks made with concentrations of 1 and 10 mg/ml", "value": "effective in creating large inhibition zones"}, {"measurement": "bacterial growth adjacent to the disks (in words)", "setting": "Esccherichia coli", "value": "prevented"}, {"measurement": "bacterial growth adjacent to the disks (in words)", "setting": "Corynebacterium spp.", "value": "prevented"}, {"measurement": "bacterial growth adjacent to the disks (in words)", "setting": "Staphylococcus spp.", "value": "prevented"}, {"measurement": "bacterial growth adjacent to the disks (in words)", "setting": "Pasteurella multocida", "value": "prevented"}, {"measurement": "bacterial growth adjacent to the disks (in words)", "setting": "Bacillus cereus", "value": "prevented"}, {"measurement": "inhibition of bacterial growth by concrete disks (in words)", "setting": "bacterial growth", "value": "perform in the same way as the disks in example one"}]}]}
